Measured values from US9266864B2, “VEGFR3 inhibitors” (CANCER THERAPEUTICS CRC PTY LIMITED, priority 2012, dated 2016).

Target: T1, P397Y-FAK (Homo sapiens, UniProt Q05397)
T1 construct: endogenous in cells; host or cells: MDA-231-LNA
Experiment: P397Y-FAK Inhibition MSD Platform Cellular Biomarker Assay
Assay type: cell-based
Details: MDA-231-LNA cells; concentration not given
Protocol: 96-well plates (cat#MA6000, Meso Scale Discovery) are coated with 30 μL/well of mouse monoclonal FAK antibody [63D5] (cat#ab72140, Abcam) pre-diluted in PBS to a concentration of 1 mg/mL. The plates are sealed with adhesive film and incubated for 16 hours at 4° C. The antibody is then flicked out of the plates and 150 μL of 3% [w/v] Blocker A (cat#R93AA-1, Meso Scale Discovery) is added. The plates are resealed with adhesive film and incubated at room temperature on a shaker set at medium speed for 2 hours. The plates are then washed three times with a solution containing 50 mM Tris-HCl pH 7.5, 0.15 M NaCl and 0.02% Tween-20, before cell lysate addition described below.
Cells are split 1:2 into T150 cell culture flasks 2 days prior to compound treatment. On the day prior to compound treatment, 200 μL media containing 20,000 cells is seeded into all wells of white, clear-bottom, TC treated, μclear, 96-well microtitre plates (cat#655098, Greiner Bio-One), and the plates are incubated at 37° C. and 5% CO2 for 36 hours. 1 μL/well of compound is then added from dilution series prepared in DMSO. […] 150 μL/well of Read Buffer T+Surfactant (cat#R92TC-1, Meso Scale Discovery) is then added, and pFAK-397 levels quantified using a Meso Scale Discovery SECTOR Imager 6000 instrument. […]

T1 sequence (Q05397 2-1052 limits assumed, stated change not applied): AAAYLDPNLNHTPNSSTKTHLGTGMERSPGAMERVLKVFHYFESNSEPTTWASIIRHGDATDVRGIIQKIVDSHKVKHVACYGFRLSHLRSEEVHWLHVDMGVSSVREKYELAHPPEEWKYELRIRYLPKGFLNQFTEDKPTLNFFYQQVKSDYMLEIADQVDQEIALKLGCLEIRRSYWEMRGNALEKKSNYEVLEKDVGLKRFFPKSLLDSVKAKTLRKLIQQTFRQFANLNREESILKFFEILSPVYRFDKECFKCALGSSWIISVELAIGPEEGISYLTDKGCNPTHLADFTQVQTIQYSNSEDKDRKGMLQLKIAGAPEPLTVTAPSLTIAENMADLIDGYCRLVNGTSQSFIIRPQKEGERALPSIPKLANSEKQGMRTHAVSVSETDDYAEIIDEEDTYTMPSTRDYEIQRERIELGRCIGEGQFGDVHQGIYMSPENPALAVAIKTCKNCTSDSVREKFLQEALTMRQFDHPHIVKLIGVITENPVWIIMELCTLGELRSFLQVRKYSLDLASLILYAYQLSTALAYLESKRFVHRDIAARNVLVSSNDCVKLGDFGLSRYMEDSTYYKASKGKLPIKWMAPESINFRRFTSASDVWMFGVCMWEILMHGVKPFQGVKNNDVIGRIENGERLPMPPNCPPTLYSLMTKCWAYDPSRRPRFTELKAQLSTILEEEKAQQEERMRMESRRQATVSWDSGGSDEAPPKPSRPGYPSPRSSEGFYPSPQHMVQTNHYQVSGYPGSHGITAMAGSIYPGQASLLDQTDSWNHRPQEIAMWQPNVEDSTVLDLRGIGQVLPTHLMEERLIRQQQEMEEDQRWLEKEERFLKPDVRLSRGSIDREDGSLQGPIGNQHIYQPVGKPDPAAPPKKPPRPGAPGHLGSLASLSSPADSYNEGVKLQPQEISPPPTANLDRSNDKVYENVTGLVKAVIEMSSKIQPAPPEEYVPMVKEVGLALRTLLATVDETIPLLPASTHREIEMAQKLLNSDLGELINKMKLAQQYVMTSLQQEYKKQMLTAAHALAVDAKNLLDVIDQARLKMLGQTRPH

NC(=O)Cc1ccccc1CCc1nc(Nc2ccc(C3CNC3)cc2)ncc1C(F)(F)F [Compound 20, 2-(2-(2-(2-((4-(azetidin-3-yl)phenyl)amino)-5-(trifluoromethyl)pyrimidin-4-yl)ethyl)phenyl)acetamide]
P397Y-FAK inhibition (percent printed in the IC50 column): <50%
